Measured values published in PMC8617031, “Development of a BCL-xL and BCL-2 dual degrader with improved anti-leukemic activity,” (Nature Communications, 2021).
Where “and” joins values, the source holds several entries; their conditions need not be identical. Equal entries are not always repeated.

Tests used:
[1] = molecular target: T1, BCL-2 (Homo sapiens, UniProt P10415); assay: BCL-2 degradation by immunoblot in 293T cells; type: cell-based; details: for BCL-2 degradation (in words) / DC50: 293T cells, 16 h; for DC50: four concentrations, Fig. 2b, read-out: BCL-2 DC50; for Dmax: HEK-293T
T1 construct: endogenous in cells
T1 sequence (P10415 whole entry): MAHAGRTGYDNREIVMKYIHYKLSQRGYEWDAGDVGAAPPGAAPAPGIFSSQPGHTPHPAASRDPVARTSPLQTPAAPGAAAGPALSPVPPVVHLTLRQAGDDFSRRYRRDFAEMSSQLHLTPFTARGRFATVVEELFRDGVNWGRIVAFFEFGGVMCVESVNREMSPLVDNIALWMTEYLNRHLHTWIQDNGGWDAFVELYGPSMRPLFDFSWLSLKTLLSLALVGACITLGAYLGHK
How it was run: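 Immunoblot of 293T cell lysates (RIPA, 20–40 μg protein per lane) with β-actin as loading control and chemiluminescent detection. Bands quantified by densitometry and normalized; DC50 and Dmax derived from the quantified blots, n = 3 biologically independent experiments.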

[2] = molecular target: T2, BCL-xL/PROTAC/VHL-ELOC-ELOB (VCB) ternary complex (Homo sapiens, UniProt P40337+Q07817); assay: AlphaLISA ternary complex formation, cell-free, BCL-xL; type: binding; details: for in vitro ternary complex formation with BCL-xL (in words): AlphaLISA, cell-free, Fig. 2c, 3e; for AlphaLISA signal, BCL-xL/PROTAC/VCB: Fig. 2c raw Alpha reads
T2 construct: pGEX-6P-1-VHL(54-213) (pDL2200) was constructed through Gibson assembly method; made in house; host or cells: bacterial culture (LB broth, IPTG induction)
T2 sequence (Q07817 1-212 limits assumed): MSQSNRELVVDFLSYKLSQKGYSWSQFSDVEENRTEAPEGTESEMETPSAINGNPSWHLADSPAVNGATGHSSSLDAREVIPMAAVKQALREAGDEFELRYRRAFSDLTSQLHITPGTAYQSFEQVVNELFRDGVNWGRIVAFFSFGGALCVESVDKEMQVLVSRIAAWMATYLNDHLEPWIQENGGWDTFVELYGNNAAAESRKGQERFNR
T2 sequence (P40337 54-213 limits assumed): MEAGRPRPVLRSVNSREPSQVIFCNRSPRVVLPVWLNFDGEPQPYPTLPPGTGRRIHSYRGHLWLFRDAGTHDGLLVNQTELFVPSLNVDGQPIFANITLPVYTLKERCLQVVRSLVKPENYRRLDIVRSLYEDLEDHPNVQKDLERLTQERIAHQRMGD
T2 sequence (Q15369 17-112 partner limits assumed): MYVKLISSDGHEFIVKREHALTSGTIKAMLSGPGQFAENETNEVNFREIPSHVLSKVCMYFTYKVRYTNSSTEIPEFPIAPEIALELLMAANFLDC
T2 sequence (Q15370 whole entry partner): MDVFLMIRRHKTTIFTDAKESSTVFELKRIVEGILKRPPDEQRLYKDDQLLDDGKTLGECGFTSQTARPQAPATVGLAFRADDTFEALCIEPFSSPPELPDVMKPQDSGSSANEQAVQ
How it was run: (§1)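 Cell-free AlphaLISA: 5 nM His-tagged BCL-xL or BCL-2 plus 5 nM GST-VCB incubated with fourfold serially diluted compound 30 min at room temperature. Glutathione donor and His acceptor beads (20 µg/ml each) then added for 15 and 45 min; AlphaLISA signal plotted against compound concentration.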

[3] = molecular target: T3, BCL-2/PROTAC/VCB ternary complex (Homo sapiens, UniProt P10415+P40337); assay: AlphaLISA ternary complex formation, cell-free, BCL-2; type: binding; details: for in vitro ternary complex formation with BCL-2 (in words): AlphaLISA, cell-free, Fig. 2d, 3f; for AlphaLISA signal, BCL-2/PROTAC/VCB: Fig. 2d raw Alpha reads
T3 construct: pGEX-6P-1-VHL(54-213) (pDL2200) was constructed through Gibson assembly method; made in house; host or cells: bacterial culture (LB broth, IPTG induction)
T3 sequence (P10415 1-211 limits assumed): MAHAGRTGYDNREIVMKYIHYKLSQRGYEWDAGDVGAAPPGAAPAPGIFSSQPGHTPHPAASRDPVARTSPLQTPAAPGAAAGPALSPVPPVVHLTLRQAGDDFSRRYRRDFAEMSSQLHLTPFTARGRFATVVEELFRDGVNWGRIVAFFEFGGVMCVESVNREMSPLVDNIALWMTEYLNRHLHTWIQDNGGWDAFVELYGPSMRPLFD
T3 sequence (P40337 54-213 limits assumed): as the sequence (P40337 54-213 limits assumed) above
T3 sequence (Q15369 17-112 partner limits assumed): as the sequence (Q15369 17-112 partner limits assumed) above
T3 sequence (Q15370 whole entry partner): as the sequence (Q15370 whole entry partner) above
How it was run: as §1

[4] = compound 200000 nM, 2 technical replicates

| Structure (SMILES) | BCL-2 degradation (in words) [1] | DC50 [1] [nM] | Dmax [1] [%] | in vitro ternary complex formation with BCL-xL (in words) [2] | AlphaLISA signal, BCL-xL/PROTAC/VCB ([2]; compound 0.191 nM) | AlphaLISA signal, BCL-xL/PROTAC/VCB ([2]; compound 0.763 nM) | AlphaLISA signal, BCL-xL/PROTAC/VCB ([2]; compound 3.052 nM) | AlphaLISA signal, BCL-xL/PROTAC/VCB ([2]; compound 12.207 nM) | AlphaLISA signal, BCL-xL/PROTAC/VCB ([2]; compound 48.828 nM) | AlphaLISA signal, BCL-xL/PROTAC/VCB ([2]; compound 195.31 nM) | AlphaLISA signal, BCL-xL/PROTAC/VCB ([2]; compound 781.25 nM) | AlphaLISA signal, BCL-xL/PROTAC/VCB ([2]; compound 3125 nM) | AlphaLISA signal, BCL-xL/PROTAC/VCB ([2]; compound 12500 nM) | AlphaLISA signal, BCL-xL/PROTAC/VCB ([2]; compound 50000 nM) | AlphaLISA signal, BCL-xL/PROTAC/VCB [2, 4] | in vitro ternary complex formation with BCL-2 (in words) [3] | AlphaLISA signal, BCL-2/PROTAC/VCB ([3]; compound 0.763 nM) | AlphaLISA signal, BCL-2/PROTAC/VCB ([3]; compound 3.052 nM) | AlphaLISA signal, BCL-2/PROTAC/VCB ([3]; compound 12.207 nM) | AlphaLISA signal, BCL-2/PROTAC/VCB ([3]; compound 48.828 nM) | other results |
| --- | --- | --- | --- | --- | --- | --- | --- | --- | --- | --- | --- | --- | --- | --- | --- | --- | --- | --- | --- | --- | --- |
| Cc1ncsc1-c1ccc([C@H](C)NC(=O)[C@@H]2C[C@@H](O)CN2C(=O)[C@@H](NC(=O)CCCCCC(=O)N2CCN(CC3(C)CCC(c4ccc(Cl)cc4)=C(CN4CCN(c5ccc(C(=O)NS(=O)(=O)c6ccc(N[C@H](CCN7CCOCC7)CSc7ccccc7)c(S(=O)(=O)C(F)(F)F)c6)cc5)CC4)C3)CC2)C(C)(C)C)cc1 (some centres unmarked) [PPC7] | also degraded BCL-2 | 180 | 79 | stronger ternary complexes | 16342 and 14008 | 13825 and 16199 | 18964 and 20836 | 75292 and 75299 | 594562 and 681817 | 1206651 and 1333081 | 1103207 and 1035637 | 530944 and 584971 | 158302 and 141290 | 39339 and 47417 | 23853 and 20524 | stronger ternary complexes | 20141 and 15109 | 29796 and 29041 | 146984 and 135341 | 1032585 and 1008497 | AlphaLISA signal, BCL-2/PROTAC/VCB ([3]; compound 195.31 nM): 1592216 and 1719187; AlphaLISA signal, BCL-2/PROTAC/VCB ([3]; compound 781.25 nM): 1513830 and 1470142; AlphaLISA signal, BCL-2/PROTAC/VCB ([3]; compound 3125 nM): 403994 and 403317; AlphaLISA signal, BCL-2/PROTAC/VCB ([3]; compound 12500 nM): 43692 and 35758; AlphaLISA signal, BCL-2/PROTAC/VCB ([3]; compound 50000 nM): 12115 and 13570; AlphaLISA signal, BCL-2/PROTAC/VCB [3, 4]: 14257 and 11084 |
| Cc1ncsc1-c1ccc([C@H](C)NC(=O)[C@@H]2C[C@@H](O)CN2C(=O)[C@@H](NC(=O)CCCCCCC(=O)N2CCN(CC3(C)CCC(c4ccc(Cl)cc4)=C(CN4CCN(c5ccc(C(=O)NS(=O)(=O)c6ccc(N[C@H](CCN7CCOCC7)CSc7ccccc7)c(S(=O)(=O)C(F)(F)F)c6)cc5)CC4)C3)CC2)C(C)(C)C)cc1 (some centres unmarked) [PPC8] | also degraded BCL-2 | 54 | 94 | stronger ternary complexes | 19077 and 19160 | 16314 and 16977 | 21818 and 20322 | 112726 and 99392 | 824374 and 896013 | 1441307 and 1441293 | 1280941 and 1272724 | 836346 and 758740 | 257313 and 288328 | 78225 and 86140 | 21117 and 20625 | stronger ternary complexes | 16981 and 16694 | 31764 and 30263 | 220610 and 232235 | 1164349 and 1304184 | AlphaLISA signal, BCL-2/PROTAC/VCB ([3]; compound 0.191 nM): 15495 and 15269; AlphaLISA signal, BCL-2/PROTAC/VCB ([3]; compound 195.31 nM): 1706795 and 1639825; AlphaLISA signal, BCL-2/PROTAC/VCB ([3]; compound 781.25 nM): 1791615 and 1848085; AlphaLISA signal, BCL-2/PROTAC/VCB ([3]; compound 3125 nM): 524010 and 562226; AlphaLISA signal, BCL-2/PROTAC/VCB ([3]; compound 12500 nM): 80335 and 78686; AlphaLISA signal, BCL-2/PROTAC/VCB ([3]; compound 50000 nM): 17935 and 18240; AlphaLISA signal, BCL-2/PROTAC/VCB [3, 4]: 8109 and 11043 |
| Cc1ncsc1-c1ccc([C@H](C)NC(=O)[C@@H]2C[C@@H](O)CN2C(=O)[C@@H](NC(=O)CCCCCCCC(=O)N2CCN(CC3(C)CCC(c4ccc(Cl)cc4)=C(CN4CCN(c5ccc(C(=O)NS(=O)(=O)c6ccc(N[C@H](CCN7CCOCC7)CSc7ccccc7)c(S(=O)(=O)C(F)(F)F)c6)cc5)CC4)C3)CC2)C(C)(C)C)cc1 (some centres unmarked) [PPC9] | also degraded BCL-2 | 316 | 79 | much weaker ternary complexes | 17022 and 14292 | 18582 and 21901 | 16005 and 18766 | 39343 and 38049 | 159552 and 171121 | 340009 and 336400 | 265891 and 255043 | 73854 and 131135 | 17390 and 24043 | 11384 and 10586 | 11935 and 10943 | much weaker ternary complexes | 17336 and 18248 | 22108 and 21304 | 71357 and 62189 | 336659 and 328291 | AlphaLISA signal, BCL-2/PROTAC/VCB ([3]; compound 0.191 nM): 13571 and 17652; AlphaLISA signal, BCL-2/PROTAC/VCB ([3]; compound 195.31 nM): 357647 and 419151; AlphaLISA signal, BCL-2/PROTAC/VCB ([3]; compound 781.25 nM): 267337 and 283839; AlphaLISA signal, BCL-2/PROTAC/VCB ([3]; compound 3125 nM): 78279 and 78565; AlphaLISA signal, BCL-2/PROTAC/VCB ([3]; compound 12500 nM): 15094 and 15494; AlphaLISA signal, BCL-2/PROTAC/VCB ([3]; compound 50000 nM): 7032 and 8982; AlphaLISA signal, BCL-2/PROTAC/VCB [3, 4]: 9255 and 9885 |
